# In ChEMBL document CHEMBL3425401, “Identification of 8-aminoadenosine derivatives as a new class of human concentrative nucleoside transporter 2 inhibitors” (ACS Med Chem Lett, 2015):
# pIC50: −log10 of the molar value.
# Assays:
# [1] = molecular target: T1, Sodium/nucleoside cotransporter 2 (Homo sapiens, UniProt O43868); test: Inhibition of human CNT2 expressed in COS7 cells assessed as reduction in sodium-dependent [14C]-inosine uptake in presence of Na+ by liquid scintillation counting method; type: cell-based, COS-7
# T1 sequence (O43868 whole entry): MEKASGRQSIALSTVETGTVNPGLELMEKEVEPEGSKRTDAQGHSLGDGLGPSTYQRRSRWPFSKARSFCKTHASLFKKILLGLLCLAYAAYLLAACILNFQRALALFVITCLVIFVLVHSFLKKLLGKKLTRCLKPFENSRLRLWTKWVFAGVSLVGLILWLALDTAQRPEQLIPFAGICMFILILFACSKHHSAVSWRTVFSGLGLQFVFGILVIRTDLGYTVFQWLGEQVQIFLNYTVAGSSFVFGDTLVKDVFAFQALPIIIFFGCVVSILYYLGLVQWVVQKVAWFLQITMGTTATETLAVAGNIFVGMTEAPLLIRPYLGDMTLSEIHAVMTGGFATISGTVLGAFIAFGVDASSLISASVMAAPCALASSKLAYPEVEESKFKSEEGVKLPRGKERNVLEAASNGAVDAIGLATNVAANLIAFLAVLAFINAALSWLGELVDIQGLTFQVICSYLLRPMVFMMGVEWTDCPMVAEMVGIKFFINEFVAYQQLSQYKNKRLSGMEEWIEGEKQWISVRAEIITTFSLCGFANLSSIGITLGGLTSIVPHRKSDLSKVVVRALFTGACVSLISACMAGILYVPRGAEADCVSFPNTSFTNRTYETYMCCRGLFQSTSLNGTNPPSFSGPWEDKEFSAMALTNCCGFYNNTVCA
# [2] = molecular target: T2, Sodium/nucleoside cotransporter 2 (Homo sapiens) (UniProt O43868); test: Inhibition of human CNT2 expressed in COS7 cells assessed as reduction in sodium-dependent [14C]-inosine uptake at 100 uM in presence of Na+ by liquid scintillation counting method; type: cell-based; details: COS-7
# T2 sequence (whole entry): T1 sequence (O43868 whole entry)
# [3] = molecular target: T2, Sodium/nucleoside cotransporter 2 (Homo sapiens); test: Inhibition of human CNT2 expressed in COS7 cells assessed as reduction in sodium-dependent [14C]-inosine uptake at 1000 uM in presence of Na+ by liquid scintillation counting method; type: cell-based; details: COS-7
# [4] = molecular target: T2, Sodium/nucleoside cotransporter 2 (Homo sapiens); test: Potency index, ratio of IC50 for 2'-deoxy-5-fluorouridine to IC50 for test compound against human CNT2 expressed in COS7 cells by sodium-dependent [14C]-inosine uptake assay; type: cell-based; details: COS-7
# [5] = molecular target: T2, Sodium/nucleoside cotransporter 2 (Homo sapiens); test: Potency index, ratio of IC50 for phlorizin to IC50 for test compound against human CNT2 expressed in COS7 cells by sodium-dependent [14C]-inosine uptake assay; type: cell-based; details: COS-7
# [6] = molecular target: T2, Sodium/nucleoside cotransporter 2 (Homo sapiens); test: Potency index, ratio of IC50 for 7,8,3'-trihydroxyflavone to IC50 for test compound against human CNT2 expressed in COS7 cells by sodium-dependent [14C]-inosine uptake assay; type: cell-based; details: COS-7
SMILES,pIC50 [1],inhibition [2] [%],further results
CC(=O)OC[C@H]1O[C@@H](n2cnc3c(N)ncnc32)[C@H](O)[C@@H]1O,< 4.00,–,–
Nc1ncnc2c1nc(NCc1ccc(Cl)cc1)n2[C@@H]1O[C@H](CO)[C@@H](O)[C@H]1O,4.96,–,–
Nc1ncnc2c1nc(NCc1ccccc1-c1ccccc1)n2[C@@H]1O[C@H](CO)[C@@H](O)[C@H]1O,< 4.00,–,–
Nc1ncnc2c1nc(OCc1ccccc1)n2[C@@H]1O[C@H](CO)[C@@H](O)[C@H]1O,–,< 5,–
CCOC(=O)OC[C@H]1O[C@@H](n2cnc3c(N)ncnc32)[C@H](O)[C@@H]1O,< 4.00,–,–
CCNC(=O)OC[C@H]1O[C@@H](n2cnc3c(N)ncnc32)[C@H](O)[C@@H]1O,< 4.00,–,–
C[C@@H](Nc1nc2c(N)ncnc2n1[C@@H]1O[C@H](CO)[C@@H](O)[C@H]1O)c1ccccc1,–,< 5,–
CNC(=O)OC[C@H]1O[C@@H](n2cnc3c(N)ncnc32)[C@H](O)[C@@H]1O,< 4.00,–,–
COc1ccc(CNc2nc3c(N)ncnc3n2[C@@H]2O[C@H](CO)[C@@H](O)[C@H]2O)cc1,4.44,–,–
Nc1ncnc2c1nc(NCCCc1ccccc1)n2[C@@H]1O[C@H](CO)[C@@H](O)[C@H]1O,3.27,26,–
CCCCCC(=O)OC[C@H]1O[C@@H](n2cnc3c(N)ncnc32)[C@H](O)[C@@H]1O,< 4.00,–,–
O=c1[nH]c(=O)n([C@H]2C[C@H](O)[C@@H](CO)O2)cc1F [FLOXURIDINE],< 3.00,17,inhibition [3]: < 50%
Nc1ncnc2c1ncn2[C@@H]1O[C@H](COC(=O)NCc2ccccc2)[C@@H](O)[C@H]1O,< 4.00,–,–
Cc1ccc(CNc2nc3c(N)ncnc3n2[C@@H]2O[C@H](CO)[C@@H](O)[C@H]2O)cc1,4.96,–,–
Nc1ncnc2c1nc(Nc1ccccc1)n2[C@@H]1O[C@H](CO)[C@@H](O)[C@H]1O,3.54,36,–
Nc1ncnc2c1ncn2[C@@H]1O[C@H](COC(=O)Cc2ccccc2)[C@@H](O)[C@H]1O,< 4.00,–,–
CN(Cc1ccccc1)c1nc2c(N)ncnc2n1[C@@H]1O[C@H](CO)[C@@H](O)[C@H]1O,–,< 5,–
CCCCCOC(=O)OC[C@H]1O[C@@H](n2cnc3c(N)ncnc32)[C@H](O)[C@@H]1O,< 4.00,–,–
Nc1ncnc2c1nc(NCc1ccc3ccccc3c1)n2[C@@H]1O[C@H](CO)[C@@H](O)[C@H]1O,5.28,–,–
Nc1ncnc2c1nc(NCc1cccc3ccccc13)n2[C@@H]1O[C@H](CO)[C@@H](O)[C@H]1O,5.24,–,–

SMILES,pIC50 [1],inhibition [2] [%],further results
Nc1ncnc2c1nc(CCc1ccccc1)n2[C@@H]1O[C@H](CO)[C@@H](O)[C@H]1O,–,< 5,–
Nc1ncnc2c1ncn2[C@@H]1O[C@H](COC(=O)OCc2ccccc2)[C@@H](O)[C@H]1O,< 4.00,–,–
COc1ccccc1CNc1nc2c(N)ncnc2n1[C@@H]1O[C@H](CO)[C@@H](O)[C@H]1O,< 4.00,–,–
O=c1cc(-c2cccc(O)c2)oc2c(O)c(O)ccc12,< 3.00,< 5,inhibition [3]: < 50%
COc1cccc(CNc2nc3c(N)ncnc3n2[C@@H]2O[C@H](CO)[C@@H](O)[C@H]2O)c1,4.89,–,–
Cc1ccccc1CNc1nc2c(N)ncnc2n1[C@@H]1O[C@H](CO)[C@@H](O)[C@H]1O,4.19,–,–
Nc1ncnc2c1nc(NCc1ccccc1Cl)n2[C@@H]1O[C@H](CO)[C@@H](O)[C@H]1O,5.24,–,–
Cc1cccc(CNc2nc3c(N)ncnc3n2[C@@H]2O[C@H](CO)[C@@H](O)[C@H]2O)c1,4.72,–,–
C[C@H](Nc1nc2c(N)ncnc2n1[C@@H]1O[C@H](CO)[C@@H](O)[C@H]1O)c1ccccc1,–,< 5,–
Nc1ncnc2c1nc(NCc1cccc(-c3ccccc3)c1)n2[C@@H]1O[C@H](CO)[C@@H](O)[C@H]1O,4.68,–,–
Nc1ncnc2c1nc(NCc1ccccc1)n2[C@@H]1O[C@H](CO)[C@@H](O)[C@H]1O,4.28,58,–
CCCCCNC(=O)OC[C@H]1O[C@@H](n2cnc3c(N)ncnc32)[C@H](O)[C@@H]1O,< 4.00,–,–
Nc1ncnc2c1nc(NCc1ccc(-c3ccccc3)cc1)n2[C@@H]1O[C@H](CO)[C@@H](O)[C@H]1O,6.19,–,Ratio IC50 [4]: 1500; Ratio IC50 [5]: 1500; Ratio IC50 [6]: 1500
Nc1ncnc2c1nc(NCc1cccc(Cl)c1)n2[C@@H]1O[C@H](CO)[C@@H](O)[C@H]1O,5.27,–,–
CCC(=O)OC[C@H]1O[C@@H](n2cnc3c(N)ncnc32)[C@H](O)[C@@H]1O,< 4.00,–,–
Nc1ncnc2c1nc(SCc1ccccc1)n2[C@@H]1O[C@H](CO)[C@@H](O)[C@H]1O,–,< 5,–
Nc1ncnc2c1nc(NCCc1ccccc1)n2[C@@H]1O[C@H](CO)[C@@H](O)[C@H]1O,3.63,39,–
O=C(CCc1ccc(O)cc1)c1c(O)cc(O)cc1O[C@@H]1O[C@H](CO)[C@@H](O)[C@H](O)[C@H]1O [PHLORIZIN],< 3.00,14,inhibition [3]: < 50%
COC(=O)OC[C@H]1O[C@@H](n2cnc3c(N)ncnc32)[C@H](O)[C@@H]1O,< 4.00,–,–
